{"source": "ChEMBL document CHEMBL1773000", "about": "“Synthesis and biological activity of 22-deoxo-23-oxa analogues of saponin OSW-1” (J Med Chem, 2011)", "key": {"[1]": {"test_system": "CCRF-CEM", "test": "Induction of apoptosis in human CEM cells assessed as cleavage of PARP at 5 to 10 uM after 24 hrs by Western blot analysis relative to untreated control", "format": "functional, cell-based"}, "[2]": {"test_system": "CCRF-CEM", "test": "Induction of apoptosis in human CEM cells assessed as increase in Bcl-2 protein level after 24 hrs by Western blot analysis relative to untreated control", "format": "functional, cell-based"}, "[3]": {"test_system": "CCRF-CEM", "test": "Induction of apoptosis in human CEM cells assessed as effect on […] protein expression at 5 to 10 uM after 24 hrs by Western blot analysis relative to untreated control", "format": "functional, cell-based"}, "[4]": {"test_system": "CCRF-CEM", "test": "Induction of apoptosis in human CEM cells assessed as effect on retinoblastoma protein expression at 5 to 10 uM after 24 hrs by Western blot analysis relative to untreated control", "format": "functional, cell-based"}, "[5]": {"test_system": "CCRF-CEM", "test": "Induction of apoptosis in human CEM cells assessed as accumulation of caspase-3 after 24 hrs by Western blot analysis relative to untreated control", "format": "functional, cell-based"}, "[6]": {"test_system": "CCRF-CEM", "test": "Induction of apoptosis in human CEM cells assessed as increase in caspase-7 activity using Ac-DEVD-AMC as a substrate at 7.5 uM after 24 hrs by fluorescence microplate reader assay relative to untreated control", "format": "functional"}, "[7]": {"test_system": "CCRF-CEM", "test": "Induction of apoptosis in human CEM cells assessed as increase in caspase-7 activity using Ac-DEVD-AMC as a substrate at 10 uM after 24 hrs by fluorescence microplate reader assay relative to untreated control", "format": "functional"}, "[8]": {"test_system": "CCRF-CEM", "test": "Cytotoxicity against human CEM cells assessed as viable cells after 72 hrs by calcein AM assay", "format": "functional, cell-based"}, "[9]": {"test_system": "MCF7", "test": "Cytotoxicity against human MCF7 cells assessed as viable cells after 72 hrs by calcein AM assay", "format": "functional, cell-based", "settings": "MCF7, 72 h"}, "[10]": {"test_system": "G-361", "test": "Cytotoxicity against human G361 cells assessed as viable cells after 72 hrs by calcein AM assay", "format": "functional, cell-based", "settings": "G-361, 72 h"}, "[11]": {"test_system": "HeLa", "test": "Cytotoxicity against human HeLa cells assessed as viable cells after 72 hrs by calcein AM assay", "format": "functional, cell-based"}, "[12]": {"test_system": "HOS", "test": "Cytotoxicity against human HOS cells assessed as viable cells after 72 hrs by calcein AM assay", "format": "functional, cell-based"}, "[13]": {"test_system": "A549", "test": "Cytotoxicity against human A549 cells assessed as viable cells after 72 hrs by calcein AM assay", "format": "functional, cell-based", "settings": "A549, 72 h"}, "[14]": {"test": "Cytotoxicity against human T98 cells assessed as viable cells after 72 hrs by calcein AM assay", "format": "functional, cell-based", "settings": "T98, 72 h"}, "[15]": {"test_system": "HCT-116", "test": "Cytotoxicity against human HCT116 assessed as viable cells after 72 hrs by calcein AM assay", "format": "functional, cell-based", "settings": "HCT-116, 72 h"}, "[16]": {"test_system": "BJ", "test": "Cytotoxicity against human BJ cells assessed as viable cells after 72 hrs by calcein AM assay", "format": "cell-based"}, "[17]": {"test_system": "CCRF-CEM", "test": "Induction of cell cycle arrest in human CEM cells assessed as increase in accumulation of cells at S-phase after 24 hrs by flow cytometric analysis relative to untreated control", "format": "functional, cell-based"}, "[18]": {"test_system": "CCRF-CEM", "test": "Induction of cell cycle arrest in human CEM cells assessed as increase in accumulation of cells at G2/M-phase after 24 hrs by flow cytometric analysis relative to untreated control", "format": "functional, cell-based"}, "[19]": {"test_system": "CCRF-CEM", "test": "Induction of cell cycle arrest in human CEM cells assessed as reduction in accumulation of cells at G0/G1-phase after 24 hrs by flow cytometric analysis relative to untreated control", "format": "functional, cell-based"}, "[20]": {"test_system": "CCRF-CEM", "test": "Induction of apoptosis in human CEM cells assessed as increase in amount of DNA at subG1-phase after 24 hrs by flow cytometric analysis relative to untreated control", "format": "functional, cell-based"}, "[21]": {"test_system": "CCRF-CEM", "test": "Induction of apoptosis in human CEM cells assessed as increase in caspase-3 activity using Ac-DEVD-AMC as a substrate at 7.5 uM after 24 hrs by fluorescence microplate reader assay relative to untreated control", "format": "functional"}, "[22]": {"test_system": "CCRF-CEM", "test": "Induction of apoptosis in human CEM cells assessed as increase in caspase-3 activity using Ac-DEVD-AMC as a substrate at 10 uM after 24 hrs by fluorescence microplate reader assay relative to untreated control", "format": "functional"}, "[23]": {"test_system": "CCRF-CEM", "test": "Induction of apoptosis in human CEM cells assessed as increase in caspase-3 activity using Ac-DEVD-AMC as a substrate at 0.25 uM after 24 hrs by fluorescence microplate reader assay relative to untreated control", "format": "functional"}, "[24]": {"test_system": "CCRF-CEM", "test": "Induction of apoptosis in human CEM cells assessed as increase in caspase-3 activity using Ac-DEVD-AMC as a substrate at 0.5 uM after 24 hrs by fluorescence microplate reader assay relative to untreated control", "format": "functional"}, "[25]": {"test_system": "CCRF-CEM", "test": "Induction of apoptosis in human CEM cells assessed as cleavage of PARP at 0.1 to 0.5 uM after 24 hrs by Western blot analysis relative to untreated control", "format": "functional, cell-based"}, "[26]": {"test_system": "CCRF-CEM", "test": "Induction of apoptosis in human CEM cells assessed as effect on […] protein expression at 0.1 to 0.5 uM after 24 hrs by Western blot analysis relative to untreated control", "format": "functional, cell-based"}, "[27]": {"test_system": "CCRF-CEM", "test": "Induction of apoptosis in human CEM cells assessed as effect on retinoblastoma protein expression at 0.1 to 0.5 uM after 24 hrs by Western blot analysis relative to untreated control", "format": "functional, cell-based"}, "[28]": {"test_system": "CCRF-CEM", "test": "Induction of apoptosis in human CEM cells assessed as increase in caspase-7 activity using Ac-DEVD-AMC as a substrate at 0.25 uM after 24 hrs by fluorescence microplate reader assay relative to untreated control", "format": "functional"}, "[29]": {"test_system": "CCRF-CEM", "test": "Induction of apoptosis in human CEM cells assessed as increase in caspase-7 activity using Ac-DEVD-AMC as a substrate at 0.5 uM after 24 hrs by fluorescence microplate reader assay relative to untreated control", "format": "functional"}}, "note": "Calls of active or inactive are those of the source. No cut-off for these calls is given here.", "data": [{"smiles": "C/C=C/C(=O)OC[C@@H](C)[C@@]1(O)[C@@H](O[C@@H]2OC[C@H](O)[C@H](O[C@@H]3OC[C@@H](O)[C@H](O)[C@H]3OC(=O)c3ccc(OC)cc3)[C@H]2OC(C)=O)C[C@H]2[C@@H]3CC=C4C[C@@H](O)CC[C@]4(C)[C@H]3CC[C@@]21C", "values": [{"measurement": "Activity", "setting": "[1]", "result": "Active"}, {"measurement": "Activity", "setting": "[2]", "result": "Dose-dependent effect"}, {"measurement": "Activity", "setting": "[3]", "result": "inactive"}, {"measurement": "Activity", "setting": "[4]", "result": "inactive"}, {"measurement": "Activity", "setting": "[5]", "result": "Dose-dependent effect"}, {"measurement": "fold change (FC)", "setting": "[6]", "result": 3}, {"measurement": "fold change (FC)", "setting": "[7]", "result": 3}, {"measurement": "IC50", "setting": "[8]", "result": 340, "unit": "nM"}, {"measurement": "IC50", "setting": "[9]", "result": 840, "unit": "nM"}, {"measurement": "IC50", "setting": "[10]", "result": 890, "unit": "nM"}, {"measurement": "IC50", "setting": "[11]", "result": 1940, "unit": "nM"}, {"measurement": "IC50", "setting": "[12]", "result": "> 50000", "unit": "nM"}, {"measurement": "IC50", "setting": "[13]", "result": 550, "unit": "nM"}, {"measurement": "IC50", "setting": "[14]", "result": 940, "unit": "nM"}, {"measurement": "IC50", "setting": "[15]", "result": "> 50000", "unit": "nM"}, {"measurement": "IC50", "setting": "[16]", "result": 230, "unit": "nM"}, {"measurement": "Activity", "setting": "[17]", "result": "Dose-dependent effect"}, {"measurement": "Activity", "setting": "[18]", "result": "Dose-dependent effect"}, {"measurement": "Activity", "setting": "[19]", "result": "Dose-dependent effect"}, {"measurement": "Activity", "setting": "[20]", "result": "Active"}, {"measurement": "fold change (FC)", "setting": "[21]", "result": 3}, {"measurement": "fold change (FC)", "setting": "[22]", "result": 3}]}, {"smiles": "C=CCCCCCCCCC(=O)OC[C@@H](C)[C@@]1(O)[C@@H](O[C@@H]2OC[C@H](O)[C@H](O[C@@H]3OC[C@@H](O)[C@H](O)[C@H]3OC(=O)c3ccc(OC)cc3)[C@H]2OC(C)=O)C[C@H]2[C@@H]3CC=C4C[C@@H](O)CC[C@]4(C)[C@H]3CC[C@@]21C", "values": [{"measurement": "fold change (FC)", "setting": "[23]", "result": 2.5}, {"measurement": "fold change (FC)", "setting": "[24]", "result": 2.5}, {"measurement": "Activity", "setting": "[25]", "result": "Active"}, {"measurement": "Activity", "setting": "[26]", "result": "inactive"}, {"measurement": "Activity", "setting": "[27]", "result": "inactive"}, {"measurement": "Activity", "setting": "[5]", "result": "Dose-dependent effect"}, {"measurement": "fold change (FC)", "setting": "[28]", "result": 2.5}, {"measurement": "fold change (FC)", "setting": "[29]", "result": 2.5}, {"measurement": "IC50", "setting": "[8]", "result": 6.1, "unit": "nM"}, {"measurement": "IC50", "setting": "[9]", "result": 29, "unit": "nM"}, {"measurement": "IC50", "setting": "[10]", "result": 6.7, "unit": "nM"}, {"measurement": "IC50", "setting": "[11]", "result": 103, "unit": "nM"}, {"measurement": "IC50", "setting": "[12]", "result": 1940, "unit": "nM"}, {"measurement": "IC50", "setting": "[13]", "result": 600, "unit": "nM"}, {"measurement": "IC50", "setting": "[14]", "result": 7, "unit": "nM"}, {"measurement": "IC50", "setting": "[15]", "result": 2600, "unit": "nM"}, {"measurement": "IC50", "setting": "[16]", "result": 3, "unit": "nM"}, {"measurement": "Activity", "setting": "[17]", "result": "Dose-dependent effect"}, {"measurement": "Activity", "setting": "[18]", "result": "Dose-dependent effect"}, {"measurement": "Activity", "setting": "[19]", "result": "Dose-dependent effect"}]}]}
